Patent US8765728B2, “[1,5]-diazocin derivatives” (MelliTech, priority 2009, dated 2014)

The compounds below were run on Min6 cell (assay: Insulin secretion response of beta cell line to formula I compounds (insulin ELISA)). Conditions: rank according to % increase versus control at most effective dose.
Assay type: cell-based
Experimental: The secretory responses of beta cell lines to glucose were tested as described in Merglen et al. Endocrinology, (2004) 145(2):667-78.
Briefly, after incubation with compounds from formula I or control vehicle, cells were maintained for 2 hours in glucose-free culture medium. The cells were then washed twice and preincubated for 30 minutes at 37° C. in glucose-free Krebs-Ringer bicarbonate HEPES buffer (KRBH: 135 mM NaCl, 3.6 mM KCl, 5 mM NaHCO3, 0.5 mM NaH2PO4, 0.5 mM MgCl2, 1.5 mM CaCl2, and 10 mM HEPES, pH 7.4). BSA (0.1%) was added as an insulin carrier. Cells were subsequently washed with glucose-free KRBH and then incubated for 30 minutes at 37° C. in KRBH containing different concentrations of glucose. The reaction was stopped by placing the plates on ice; supernatants were collected to determine insulin secretion and cells were used for intracellular insulin content following acid-ethanol extraction. Insulin was measured by ELISA (Linco) according to the manufacturer's instructions.

| Structure (SMILES) | Insulin secretion (Min6 cell) Range 1 to 5 |
| --- | --- |
| COc1ccc2c(c1)CN(C1CC1)C(=O)CCN2CC(O)c1ccc2c(c1)OCCO2 (stereo not shown) [Compound 29, 5-cyclopropyl-1-(2-(2,3-dihydrobenzo[b][1,4]dioxin-6-yl)-2-hydroxyethyl)-8-methoxy-2,3,5,6-tetrahydrobenzo[b][1,5]diazocin-4(1H)-one] | 2 (2: 110-120% of control) |
| COc1cccc(C(O)CN2CCC(=O)N(C3CC3)Cc3cc(OC)ccc32)c1 (stereo not shown) [Compound 30, 5-cyclopropyl-1-(2-hydroxy-2-(3-methoxyphenyl)ethyl)-8-methoxy-2,3,5,6-tetrahydrobenzo[b][1,5]diazocin-4(1H)-one] | 1 (1: 90-110% of control) |
| COc1ccc2c(c1)CN(C1CC1)C(=O)CCN2CC(O)c1cccc(F)c1 (stereo not shown) [Compound 31, 5-cyclopropyl-1-(2-(3-fluorophenyl)-2-hydroxyethyl)-8-methoxy-2,3,5,6-tetrahydrobenzo[b][1,5]diazocin-4(1H)-one] | 1 (1: 90-110% of control) |
| COc1ccc(C(O)CN2CCC(=O)N(C3CC3)Cc3cc(OC)ccc32)cc1 (stereo not shown) [Compound 32, 5-cyclopropyl-1-(2-hydroxy-2-(4-methoxyphenyl)ethyl)-8-methoxy-2,3,5,6-tetrahydrobenzo[b][1,5]diazocin-4(1H)-one] | 3 (3: 120-140% of control) |
| COc1ccc2c(c1)CN(C1CC1)C(=O)CCN2CC(O)c1ccc(OC(F)(F)F)cc1 (stereo not shown) [Compound 33, 5-cyclopropyl-1-(2-hydroxy-2-(4-(trifluoromethoxy)phenyl)ethyl)-8-methoxy-2,3,5,6-tetrahydrobenzo[b][1,5]diazocin-4(1H)-one] | 2 (2: 110-120% of control) |
| COc1ccc2c(c1)CN(C1CC1)C(=O)CCN2CC(O)c1ccc(F)c(F)c1 (stereo not shown) [Compound 34, 5-cyclopropyl-1-(2-(3,4-difluorophenyl)-2-hydroxyethyl)-8-methoxy-2,3,5,6-tetrahydrobenzo[b][1,5]diazocin-4(1H)-one] | 1 (1: 90-110% of control) |
| O=C(CN1CCC(=O)N(C2CC2)Cc2cc(F)ccc21)c1ccccc1 [Compound 35, 5-cyclopropyl-8-fluoro-1-(2-oxo-2-phenylethyl)-2,3,5,6-tetrahydrobenzo[b][1,5]diazocin-4(1H)-one] | 1 (1: 90-110% of control) |
| COc1ccccc1C(=O)CN1CCC(=O)N(C2CC2)Cc2cc(F)ccc21 [Compound 36, 5-cyclopropyl-8-fluoro-1-(2-(2-methoxyphenyl)-2-oxoethyl)-2,3,5,6-tetrahydrobenzo[b][1,5]diazocin-4(1H)-one] | 2 (2: 110-120% of control) |
| COc1cccc(C(=O)CN2CCC(=O)N(C3CC3)Cc3cc(F)ccc32)c1 [Compound 37, 5-cyclopropyl-8-fluoro-1-(2-(3-methoxyphenyl)-2-oxoethyl)-2,3,5,6-tetrahydrobenzo[b][1,5]diazocin-4(1H)-one] | 4 (4: 140-170% of control) |
| COc1ccc(C(=O)CN2CCC(=O)N(C3CC3)Cc3cc(F)ccc32)cc1 [Compound 38, 5-cyclopropyl-8-fluoro-1-(2-(4-methoxyphenyl)-2-oxoethyl)-2,3,5,6-tetrahydrobenzo[b][1,5]diazocin-4(1H)-one] | 1 (1: 90-110% of control) |
| COc1ccc(OC)c(C(=O)CN2CCC(=O)N(C3CC3)Cc3cc(F)ccc32)c1 [Compound 39, 5-cyclopropyl-1-(2-(2,5-dimethoxyphenyl)-2-oxoethyl)-8-fluoro-2,3,5,6-tetrahydrobenzo[b][1,5]diazocin-4(1H)-one] | 3 (3: 120-140% of control) |
| O=C(CN1CCC(=O)N(C2CC2)Cc2cc(F)ccc21)c1ccc(F)cc1 [Compound 40, 5-cyclopropyl-8-fluoro-1-(2-(4-fluorophenyl)-2-oxoethyl)-2,3,5,6-tetrahydrobenzo[b][1,5]diazocin-4(1H)-one] | 3 (3: 120-140% of control) |
| O=C(CN1CCC(=O)N(C2CC2)Cc2cc(F)ccc21)c1cccc(F)c1 [Compound 41, 5-cyclopropyl-8-fluoro-1-(2-(3-fluorophenyl)-2-oxoethyl)-2,3,5,6-tetrahydrobenzo[b][1,5]diazocin-4(1H)-one] | 3 (3: 120-140% of control) |
| O=C(CN1CCC(=O)N(C2CC2)Cc2cc(F)ccc21)c1ccc(OC(F)(F)F)cc1 [Compound 42, 5-cyclopropyl-8-fluoro-1-(2-oxo-2-(4-(trifluoromethoxy)phenyl)ethyl)-2,3,5,6-tetrahydrobenzo[b][1,5]diazocin-4(1H)-one] | 1 (1: 90-110% of control) |
| O=C(CN1CCC(=O)N(C2CC2)Cc2cc(F)ccc21)c1ccc(F)c(F)c1 [Compound 43, 5-cyclopropyl-1-(2-(3,4-difluorophenyl)-2-oxoethyl)-8-fluoro-2,3,5,6-tetrahydrobenzo[b][1,5]diazocin-4(1H)-one] | 2 (2: 110-120% of control) |
| O=C(CN1CCC(=O)N(C2CC2)Cc2cc(F)ccc21)c1ccc(Cl)cc1 [Compound 44, 1-(2-(4-chlorophenyl)-2-oxoethyl)-5-cyclopropyl-8-fluoro-2,3,5,6-tetrahydrobenzo[b][1,5]diazocin-4(1H)-one] | 1 (1: 90-110% of control) |
| COc1ccc(OC)c(C(O)CN2CCC(=O)N(C3CC3)Cc3cc(F)ccc32)c1 (stereo not shown) [Compound 45, 5-cyclopropyl-1-(2-(2,5-dimethoxyphenyl)-2-hydroxyethyl)-8-fluoro-2,3,5,6-tetrahydrobenzo[b][1,5]diazocin-4(1H)-one] | 1 (1: 90-110% of control) |
| O=C1CCN(CC(O)c2ccc(F)cc2)c2ccc(F)cc2CN1C1CC1 (stereo not shown) [Compound 46, 5-cyclopropyl-8-fluoro-1-(2-(4-fluorophenyl)-2-hydroxyethyl)-2,3,5,6-tetrahydrobenzo[b][1,5]diazocin-4(1H)-one] | 2 (2: 110-120% of control) |
| O=C1CCN(CC(O)c2cccc(F)c2)c2ccc(F)cc2CN1C1CC1 (stereo not shown) [Compound 47, 5-cyclopropyl-8-fluoro-1-(2-(3-fluorophenyl)-2-hydroxyethyl)-2,3,5,6-tetrahydrobenzo[b][1,5]diazocin-4(1H)-one] | 2 (2: 110-120% of control) |
| O=C1CCN(CC(O)c2ccc(OC(F)(F)F)cc2)c2ccc(F)cc2CN1C1CC1 (stereo not shown) [Compound 48, 5-cyclopropyl-8-fluoro-1-(2-hydroxy-2-(4-(trifluoromethoxy)phenyl)ethyl)-2,3,5,6-tetrahydrobenzo[b][1,5]diazocin-4(1H)-one] | 2 (2: 110-120% of control) |
| O=C1CCN(CC(O)c2ccc(F)c(F)c2)c2ccc(F)cc2CN1C1CC1 (stereo not shown) [Compound 49, 5-cyclopropyl-1-(2-(3,4-difluorophenyl)-2-hydroxyethyl)-8-fluoro-2,3,5,6-tetrahydrobenzo[b][1,5]diazocin-4(1H)-one] | 5 (5: >170% of control) |
| O=C1CCN(CC(O)c2ccc(Cl)cc2)c2ccc(F)cc2CN1C1CC1 (stereo not shown) [Compound 50, 1-(2-(4-chlorophenyl)-2-hydroxyethyl)-5-cyclopropyl-8-fluoro-2,3,5,6-tetrahydrobenzo[b][1,5]diazocin-4(1H)-one] | 2 (2: 110-120% of control) |
